According to publication PMC10974743, “Design, Synthesis, and Biological Evaluation of Novel Phenoxy Acetic Acid Derivatives as Selective COX-2 Inhibitors Coupled with Comprehensive Bio-Pharmacological Inquiry, Histopathological Profiling, and Toxicological Scrutiny” (Molecules, 2024):
Read-outs that look alike come from different tables or passages of the source.

Columns and labels:
[1] = test system: carrageenan-induced paw edema; assay: Carrageenan paw edema test (paw thickness, paw weight); conditions: for Paw thickness difference: oral; for Paw thickness difference / Paw Weight Increase: mean ± SD, n = 6; for Percentage of inhibition of paw thickness: vs carrageenan group; for Paw Weight Increase: right vs left paw, after 5 h; for all read-outs here: test concentration or dose not given here
ovine COX-1 = biological target: T1, ovine COX-1 (Ovis aries, UniProt P05979); assay: In vitro COX-1 inhibition assay (Cayman colorimetric COX inhibitor screening kit)
T1 sequence (P05979 25-600): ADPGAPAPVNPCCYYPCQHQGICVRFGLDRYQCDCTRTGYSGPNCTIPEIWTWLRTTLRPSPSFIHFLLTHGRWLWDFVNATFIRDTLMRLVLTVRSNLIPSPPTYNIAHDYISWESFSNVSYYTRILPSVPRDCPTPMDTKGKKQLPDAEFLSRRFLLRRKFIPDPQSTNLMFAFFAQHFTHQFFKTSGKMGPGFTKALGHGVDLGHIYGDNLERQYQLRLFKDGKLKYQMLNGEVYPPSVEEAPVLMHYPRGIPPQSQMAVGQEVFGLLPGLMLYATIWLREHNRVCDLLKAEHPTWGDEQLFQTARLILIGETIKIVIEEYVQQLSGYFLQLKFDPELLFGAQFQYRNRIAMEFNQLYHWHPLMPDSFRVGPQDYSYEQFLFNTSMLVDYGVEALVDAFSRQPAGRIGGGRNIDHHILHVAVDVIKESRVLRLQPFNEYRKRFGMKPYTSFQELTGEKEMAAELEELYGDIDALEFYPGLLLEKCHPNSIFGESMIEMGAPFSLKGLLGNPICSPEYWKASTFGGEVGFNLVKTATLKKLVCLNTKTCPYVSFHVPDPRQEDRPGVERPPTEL
Experimental: (§1) The in vitro enzyme assays were performed at the Biochemistry Department, Cairo
(§2) General Hospital, Egypt. Cayman® colorimetric COX (ovine) inhibitor screening assay kit (Item
(§3) enzymes in presence of all newly compounds. Generally, this kit is dependent on the reductive
(§4) reaction of COX. A specific antibody binds to PGH2 produced by COX and is further quantified
(§5) by the ELISA technique as previously reported. After that, the selectivity index (SI) was calculated
as the following equation:
𝐒𝐞𝐥𝐞𝐜𝐭𝐢𝐯𝐢𝐭𝐲 𝐢𝐧𝐝𝐞𝐱 (𝐒𝐈) = 𝐈𝐂₅₀𝐨𝐟 𝐂𝐎𝐗 − 𝟏

human COX-2 = biological target: T2, human COX-2 (Homo sapiens, UniProt P35354); assay: In vitro COX-2 inhibition assay (Cayman colorimetric COX inhibitor screening kit); conditions: for SI (COX-2 selectivity index): COX-1 (IC50)/COX-2 (IC50); for IC50: COX-2 IC50, mean ± SEM, n = 3
T2 sequence (P35354 18-604): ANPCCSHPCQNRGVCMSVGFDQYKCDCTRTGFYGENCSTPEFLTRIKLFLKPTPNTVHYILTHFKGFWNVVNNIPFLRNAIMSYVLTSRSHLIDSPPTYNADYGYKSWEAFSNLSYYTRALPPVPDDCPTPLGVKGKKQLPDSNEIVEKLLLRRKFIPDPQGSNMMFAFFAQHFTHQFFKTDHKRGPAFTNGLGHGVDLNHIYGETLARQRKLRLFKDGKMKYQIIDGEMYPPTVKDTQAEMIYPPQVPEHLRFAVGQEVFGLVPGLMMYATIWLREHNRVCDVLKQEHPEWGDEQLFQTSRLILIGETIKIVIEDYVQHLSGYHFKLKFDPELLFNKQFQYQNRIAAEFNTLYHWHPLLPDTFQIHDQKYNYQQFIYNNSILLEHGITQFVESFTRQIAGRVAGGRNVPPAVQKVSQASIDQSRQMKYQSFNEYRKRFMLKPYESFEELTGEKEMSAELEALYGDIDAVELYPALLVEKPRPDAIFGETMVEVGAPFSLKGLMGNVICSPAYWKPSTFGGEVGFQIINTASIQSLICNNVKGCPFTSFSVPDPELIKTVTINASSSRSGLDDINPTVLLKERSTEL
Experimental: as §1, §2, §3, §4, §5
as the following equation:
𝐒𝐞𝐥𝐞𝐜𝐭𝐢𝐯𝐢𝐭𝐲 𝐢𝐧𝐝𝐞𝐱 (𝐒𝐈) = 𝐈𝐂₅₀𝐨𝐟 𝐂𝐎𝐗 − 𝟏

COX-2 = conditions: cited from earlier work

SMILES | Paw thickness difference ([1]; 1st h after carrageenan) | Percentage of inhibition of paw thickness ([1]; 1st h) | Paw thickness difference ([1]; 2nd h after carrageenan) | Percentage of inhibition of paw thickness ([1]; 2nd h) | Paw thickness difference ([1]; 3rd h after carrageenan) | Percentage of inhibition of paw thickness ([1]; 3rd h) | Paw thickness difference ([1]; 4th h after carrageenan) | Percentage of inhibition of paw thickness ([1]; 4th h) | Paw thickness difference ([1]; 5th h after carrageenan) | Percentage of inhibition of paw thickness ([1]; 5th h) | Paw Weight Increase [1] | IC50 (ovine COX-1) | SI (COX-2 selectivity index) (human COX-2) | IC50 (human COX-2) | IC50 (COX-2; earlier work of the authors) | melting point | Selectivity for COX-2 over COX-1 (COX-2) | IC50 (COX-2)
Cc1ccc(NCC(=O)NN=Cc2cc(Br)ccc2OCC(=O)O)cc1 [Compound 10e, 2-(4-Bromo-2-((2-(p-tolylglycyl)hydrazineylidene)methyl)phenoxy)aceticacid] | 1.79 ± 0.39 mm | 9.38% | 3.00 ± 0.30 mm | 9.01% | 3.58 ± 0.17 mm | 15.28% | 3.98 ± 0.26 mm | 21.24% | 4.17 ± 0.24 mm | 21.42% | 64.95 ± 6.79 ^abcd % | 4070 ± 120 nM | 67.83 | 60 ± 10 nM |  |  |  | 
O=C(O)COc1ccc(/C=C2\SC(N3N=C(c4ccc(Cl)cc4)CC3c3ccccc3)=NC2=O)cc1 (stereo not drawn) [XIV] |  |  |  |  |  |  |  |  |  |  |  |  |  |  | 60 nM |  |  | 
O=C(O)COc1ccc(Br)cc1C=NNC(=O)c1ccccc1 [Compound 5d, 2-(2-((2-Benzoylhydrazineylidene)methyl)-4-bromophenoxy)acetic acid] | 1.37 ± 0.13 mm | 30.57% | 2.76 ± 0.24 mm | 16.19% | 3.56 ± 0.33 mm | 15.67% | 3.7 ± 0.32 mm | 26.75% | 3.90 ± 0.41 mm | 26.51% | 76.92 ± 3.89 ^abcd % | 9030 ± 150 nM | 112.87 | 80 ± 10 nM |  |  |  | 
O=C(O)COc1ccccc1C=NNC(=O)c1ccccc1 [Compound 5a, 2-(2-((2-Benzoylhydrazineylidene)methyl)phenoxy)acetic acid] |  |  |  |  |  |  |  |  |  |  |  | 10000 ± 100 nM | 10.31 | 970 ± 60 nM |  | 209 to 211 °C |  | 
Cc1ccc(NCC(=O)NN=Cc2ccccc2OCC(=O)O)cc1 [Compound 10b, 2-(2-((2-(4-Tolylglycyl)hydrazineylidene)methyl)phenoxy)acetic acid] |  |  |  |  |  |  |  |  |  |  |  | 4970 ± 60 nM | 15.06 | 330 ± 60 nM |  | 236 to 238 °C |  | 
O=C(O)COc1ccccc1C=NNC(=O)Cc1ccccc1 [Compound 7a, 2-(2-((2-(2-Phenylacetyl)hydrazineylidene)methyl)phenoxy)acetic acid] |  |  |  |  |  |  |  |  |  |  |  | 10000 ± 200 nM | 76.92 | 130 ± 60 nM |  | 214 to 215 °C |  | 
NS(=O)(=O)c1ccc(-n2nc(C(F)(F)F)cc2-c2ccc(Br)cc2)cc1 [SC-558] |  |  |  |  |  |  |  |  |  |  |  |  |  |  |  |  | 1900 fold | 
O=C(O)COc1ccc(Br)cc1C=NNC(=O)CNC(=O)c1ccccc1 [Compound 13b, 2-(2-((2-(Benzoylglycyl)hydrazineylidene)methyl)-4-bromophenoxy)acetic acid] |  |  |  |  |  |  |  |  |  |  |  | 9930 ± 120 nM | 76.38 | 130 ± 60 nM |  | 248 to 250 °C |  | 
Cc1ccc(C(=O)NN=Cc2ccccc2OCC(=O)O)cc1 [Compound 5b, 2-(2-((2-(4-Methylbenzoyl)hydrazineylidene)methyl)phenoxy)acetic acid] |  |  |  |  |  |  |  |  |  |  |  | 7500 ± 200 nM | 20.27 | 370 ± 60 nM |  | 222 to 223 °C |  | 
CS(=O)(=O)c1ccc(C2=C(c3ccccc3)C(=O)OC2)cc1 [rofecoxib] |  |  |  |  |  |  |  |  |  |  |  |  |  |  |  |  |  | 500 nM
O=C(O)COc1ccc(Br)cc1/C=N/NC(=O)CNc1ccccc1 [Compound 10d] | 1.55 ± 0.41 mm | 21.37% | 2.60 ± 0.21 mm | 21.15% | 2.93 ± 0.37 mm | 30.56% | 3.44 ± 0.37 mm | 31.87% | 3.73 ± 0.34 mm | 29.71% | 60.8 ± 4.27 ^abcd % | 7000 ± 200 nM | 87.50 | 80 ± 10 nM |  |  |  | 
O=C(O)COc1ccccc1/C=N/NC(=O)CNc1ccccc1 [Compound 10a] |  |  |  |  |  |  |  |  |  |  |  | 9500 ± 200 nM | 19.00 | 500 ± 100 nM |  | 221 to 222 °C |  | 
Cc1ccc(-c2ncc(Cl)cc2-c2ccc(S(C)(=O)=O)cc2)cn1 [etoricoxib] |  |  |  |  |  |  |  |  |  |  |  |  |  |  |  |  |  | 5000 nM
O=C(O)COc1ccccc1C=NNC(=O)CNc1ccc(Cl)cc1 [Compound 10c, 2-(2-((2-((4-Chlorophenyl)glycyl)hydrazineylidene)methyl)phenoxy)acetic acid] | 1.65 ± 0.22 mm | 16.47% | 2.64 ± 0.33 mm | 19.99% | 3.11 ± 0.29 mm | 26.25% | 3.81 ± 0.19 mm | 24.47% | 4.22 ± 0.28 mm | 20.54% | 69.01 ± 4.61 ^abcd % | 5570 ± 120 nM | 79.57 | 70 ± 10 nM |  |  |  | 
Cc1ccc(C(=O)NN=Cc2cc(Br)ccc2OCC(=O)O)cc1 [Compound 5e, 2-(4-Bromo-2-((2-(4-methylbenzoyl)hydrazineylidene)methyl)phenoxy)acetic acid] | 1.57 ± 0.4 mm | 20.35% | 2.53 ± 0.48 mm | 23.28% | 3.43 ± 0.10 mm | 18.71% | 3.55 ± 0.11 mm | 29.59% | 3.68 ± 0.15 mm | 30.72% | 47.55 ± 2.41 ^abcd % | 7000 ± 200 nM | 100.00 | 70 ± 10 nM |  |  |  | 
O=C(O)COc1ccccc1C=NNC(=O)CNC(=O)c1ccccc1 [Compound 13a, 2-(2-((2-(Benzoylglycyl)hydrazineylidene)methyl)phenoxy)acetic acid] |  |  |  |  |  |  |  |  |  |  |  | 8430 ± 120 nM | 36.65 | 230 ± 60 nM |  | 210 to 211 °C |  | 
O=C(O)COc1ccccc1C=NNC(=O)c1ccc(Cl)cc1 [Compound 5c, 2-(2-((2-(4-Chlorobenzoyl)hydrazineylidene)methyl)phenoxy)acetic acid] |  |  |  |  |  |  |  |  |  |  |  | 14500 ± 200 nM | 111.53 | 130 ± 60 nM |  | 241 to 243 °C |  | 
O=C(O)COc1ccc(Br)cc1C=NNC(=O)CNc1ccc(Cl)cc1 [Compound 10f, 2-(4-Bromo-2-((2-((4 chlorophenyl)glycyl)hydrazineylidene)methyl)phenoxy) acetic acid] | 1.77 ± 0.27 mm | 10.39% | 2.85 ± 0.46 mm | 13.51% | 3.24 ± 0.46 mm | 23.17% | 3.63 ± 0.48 mm | 28.04% | 3.78 ± 0.51 mm | 28.80% | 59.16 ± 2.72 ^abcd % | 4970 ± 60 nM | 55.22 | 90 ± 10 nM |  |  |  | 
